# In patent US20210038515A1 (Azurity Pharmaceuticals, Inc., priority 2014, published 2021):
# Tested on: Clostridium difficile
# Assay: Agar dilution MIC of vancomycin preparations (Sigma, Cutis), diluent, Na benzoate and Na citrate
# Assay type: cell-based
# Details: for MIC, AV (average): average of triplicate; for MIC, VAN-1: replicate 1; for MIC, VAN-2: replicate 2; for MIC, VAN-3: replicate 3
# Experimental: Introduction: The purpose of the study was to compare the MICs obtained with the formulation of vancomycin HCL of the invention (Cutis) to formulations obtained using a vancomycin HCL reference standard powder obtained from Sigma. The Example also involves the analysis of a solution or diluent to determine if it has antimicrobial activity at the concentrations present in the agar dilution test.
# The C. difficile were tested by agar dilution according to the procedures in the Clinical and Laboratory Standards Institute. 2012. Methods for antimicrobial susceptibility testing of anaerobic bacteria; approved standard-seventh edition.
# Other anaerobic organisms included clinical isolates of Bifidobacterium adolescentis and Bacteroides fragilis. Clostridium difficile ATCC 700057 was included as a quality control strain.
# The C. difficile isolates were recovered from patients with CDI during the past two years and stored at −70° C. in 20% skim milk. Ribotyping was performed by another reference laboratory. The strains were taken from the freezer and subcultured at least twice to ensure purity and good growth.
# On the day of testing, they were suspended in Brucella broth to the turbidity of the 0.5 McFarland standard for testing.
# Stock solution of the Sigma vancomycin was prepared in water and stored at −70° C. On the day of testing, it was thawed and further diluted in water to obtain the desired range of 16-0.125 μg/ml. The Cutis vancomycin (25 mg/ml) was reconstituted on the day of testing and further diluted for a final range of 16-0.125 μg/ml in the test. The antimicrobials were added to molten Brucella agar supplemented with vitamin K and hemin to prepare the plates. Drug-free growth controls were included for testing before and after each set of plates. All testing was done in triplicate.
# The organisms were pipetted into the wells of the Steers replicator head and applied to the plates with the multi-pronged replicator. The final concentration of organisms was ˜10^5 CFU/spot.
# The plates were incubated in the anaerobic chamber incubator for 44 h and examined for growth.
# The Cutis diluent comprises: water, about 0.12% (w/v) citric acid (anhydrous), 0.2% (w/v) sucralose, about 0.05% (w/v) artificial grape flavor, 0.1% (w/v) sodium benzoate, about 0.0002% (w/v) D&C Yellow No. 10 and about 0.000038% (w/v) FD&C Red No. 40.
smiles,measurement,setting,value
CN[C@H](CC(C)C)C(=O)N[C@H]1C(=O)N[C@@H](CC(N)=O)C(=O)N[C@H]2C(=O)N[C@H]3C(=O)N[C@H](C(=O)N[C@H](C(=O)O)c4cc(O)cc(O)c4-c4cc3ccc4O)[C@H](O)c3ccc(c(Cl)c3)Oc3cc2cc(c3O[C@@H]2O[C@H](CO)[C@@H](O)[C@H](O)[C@H]2O[C@H]2C[C@](C)(N)[C@H](O)[C@H](C)O2)Oc2ccc(cc2Cl)[C@H]1O.Cl [Sigma],"MIC, AV (average)","RMA 24690, ribotype 027",5.3 µg/mL
same,"MIC, VAN-1","RMA 24690, ribotype 027",4 µg/mL
same,"MIC, VAN-2","RMA 24690, ribotype 027",4 µg/mL
same,"MIC, VAN-3","RMA 24690, ribotype 027",8 µg/mL
same,"MIC, AV (average)","RMA 26381, ribotype 017",1.7 µg/mL
same,"MIC, VAN-1","RMA 26381, ribotype 017",2 µg/mL
same,"MIC, VAN-2","RMA 26381, ribotype 017",2 µg/mL
same,"MIC, VAN-3","RMA 26381, ribotype 017",1 µg/mL
same,"MIC, AV (average)","RMA 26442, ribotype 017",1 µg/mL
same,"MIC, VAN-1","RMA 26442, ribotype 017",1 µg/mL
same,"MIC, VAN-2","RMA 26442, ribotype 017",1 µg/mL
same,"MIC, VAN-3","RMA 26442, ribotype 017",1 µg/mL
same,"MIC, AV (average)","RMA 26443, ribotype 027",4 µg/mL
same,"MIC, VAN-1","RMA 26443, ribotype 027",4 µg/mL
same,"MIC, VAN-2","RMA 26443, ribotype 027",4 µg/mL
same,"MIC, VAN-3","RMA 26443, ribotype 027",4 µg/mL
same,"MIC, AV (average)","RMA 26445, ribotype 017",2 µg/mL
same,"MIC, VAN-1","RMA 26445, ribotype 017",2 µg/mL
same,"MIC, VAN-2","RMA 26445, ribotype 017",2 µg/mL
same,"MIC, VAN-3","RMA 26445, ribotype 017",2 µg/mL
same,"MIC, AV (average)","RMA 26446, ribotype 027",1 µg/mL
same,"MIC, VAN-1","RMA 26446, ribotype 027",1 µg/mL
same,"MIC, VAN-2","RMA 26446, ribotype 027",1 µg/mL
same,"MIC, VAN-3","RMA 26446, ribotype 027",1 µg/mL
same,"MIC, AV (average)","RMA 26447, ribotype 001",2 µg/mL
same,"MIC, VAN-1","RMA 26447, ribotype 001",2 µg/mL
same,"MIC, VAN-2","RMA 26447, ribotype 001",2 µg/mL
same,"MIC, VAN-3","RMA 26447, ribotype 001",2 µg/mL
same,"MIC, AV (average)","RMA 26451, ribotype 001",1.7 µg/mL
same,"MIC, VAN-1","RMA 26451, ribotype 001",2 µg/mL
same,"MIC, VAN-2","RMA 26451, ribotype 001",2 µg/mL
same,"MIC, VAN-3","RMA 26451, ribotype 001",1 µg/mL
same,"MIC, AV (average)","RMA 26455, ribotype 027",1 µg/mL
same,"MIC, VAN-1","RMA 26455, ribotype 027",1 µg/mL
same,"MIC, VAN-2","RMA 26455, ribotype 027",1 µg/mL
same,"MIC, VAN-3","RMA 26455, ribotype 027",1 µg/mL
same,"MIC, AV (average)","RMA 26457, ribotype 027",1 µg/mL
same,"MIC, VAN-1","RMA 26457, ribotype 027",1 µg/mL
same,"MIC, VAN-2","RMA 26457, ribotype 027",1 µg/mL
same,"MIC, VAN-3","RMA 26457, ribotype 027",1 µg/mL
same,"MIC, AV (average)","RMA 26461, ribotype 106",1.3 µg/mL
same,"MIC, VAN-1","RMA 26461, ribotype 106",1 µg/mL
same,"MIC, VAN-2","RMA 26461, ribotype 106",2 µg/mL
same,"MIC, VAN-3","RMA 26461, ribotype 106",1 µg/mL
same,"MIC, AV (average)","RMA 26463, ribotype 002",1.3 µg/mL
same,"MIC, VAN-1","RMA 26463, ribotype 002",1 µg/mL
same,"MIC, VAN-2","RMA 26463, ribotype 002",2 µg/mL
same,"MIC, VAN-3","RMA 26463, ribotype 002",1 µg/mL
same,"MIC, AV (average)","RMA 26466, ribotype 020",1.7 µg/mL
same,"MIC, VAN-1","RMA 26466, ribotype 020",2 µg/mL
same,"MIC, VAN-2","RMA 26466, ribotype 020",2 µg/mL
same,"MIC, VAN-3","RMA 26466, ribotype 020",1 µg/mL
same,"MIC, AV (average)","RMA 26467, ribotype 002",1.3 µg/mL
same,"MIC, VAN-1","RMA 26467, ribotype 002",1 µg/mL
same,"MIC, VAN-2","RMA 26467, ribotype 002",2 µg/mL
same,"MIC, VAN-3","RMA 26467, ribotype 002",1 µg/mL
same,"MIC, AV (average)","RMA 26471, ribotype 001",2 µg/mL
same,"MIC, VAN-1","RMA 26471, ribotype 001",2 µg/mL
same,"MIC, VAN-2","RMA 26471, ribotype 001",2 µg/mL
same,"MIC, VAN-3","RMA 26471, ribotype 001",2 µg/mL
same,"MIC, AV (average)","RMA 26472, ribotype 014",1 µg/mL
same,"MIC, VAN-1","RMA 26472, ribotype 014",1 µg/mL
same,"MIC, VAN-2","RMA 26472, ribotype 014",1 µg/mL
same,"MIC, VAN-3","RMA 26472, ribotype 014",1 µg/mL
same,"MIC, AV (average)","RMA 26480, ribotype 106",1 µg/mL
same,"MIC, VAN-1","RMA 26480, ribotype 106",1 µg/mL
same,"MIC, VAN-2","RMA 26480, ribotype 106",1 µg/mL
same,"MIC, VAN-3","RMA 26480, ribotype 106",1 µg/mL
same,"MIC, AV (average)","RMA 26484, ribotype 106",1 µg/mL
same,"MIC, VAN-1","RMA 26484, ribotype 106",1 µg/mL
same,"MIC, VAN-2","RMA 26484, ribotype 106",1 µg/mL
same,"MIC, VAN-3","RMA 26484, ribotype 106",1 µg/mL
same,"MIC, AV (average)","RMA 26485, ribotype 078",1.3 µg/mL
same,"MIC, VAN-1","RMA 26485, ribotype 078",2 µg/mL
same,"MIC, VAN-2","RMA 26485, ribotype 078",1 µg/mL
same,"MIC, VAN-3","RMA 26485, ribotype 078",1 µg/mL
same,"MIC, AV (average)","RMA 26489, ribotype 176",1 µg/mL
same,"MIC, VAN-1","RMA 26489, ribotype 176",1 µg/mL
same,"MIC, VAN-2","RMA 26489, ribotype 176",1 µg/mL
same,"MIC, VAN-3","RMA 26489, ribotype 176",1 µg/mL
same,"MIC, AV (average)","RMA 26494, ribotype 126",1.3 µg/mL
same,"MIC, VAN-1","RMA 26494, ribotype 126",1 µg/mL
same,"MIC, VAN-2","RMA 26494, ribotype 126",2 µg/mL
same,"MIC, VAN-3","RMA 26494, ribotype 126",1 µg/mL
same,"MIC, AV (average)","RMA 26500, ribotype 014",1 µg/mL
same,"MIC, VAN-1","RMA 26500, ribotype 014",1 µg/mL
same,"MIC, VAN-2","RMA 26500, ribotype 014",1 µg/mL
same,"MIC, VAN-3","RMA 26500, ribotype 014",1 µg/mL
same,"MIC, AV (average)","RMA 26503, ribotype 014",1 µg/mL
same,"MIC, VAN-1","RMA 26503, ribotype 014",1 µg/mL
same,"MIC, VAN-2","RMA 26503, ribotype 014",1 µg/mL
same,"MIC, VAN-3","RMA 26503, ribotype 014",1 µg/mL
same,"MIC, AV (average)","RMA 26543, ribotype 078",1 µg/mL
same,"MIC, VAN-1","RMA 26543, ribotype 078",1 µg/mL
same,"MIC, VAN-2","RMA 26543, ribotype 078",1 µg/mL
same,"MIC, VAN-3","RMA 26543, ribotype 078",1 µg/mL
same,"MIC, AV (average)","RMA 26544, ribotype 078",2 µg/mL
same,"MIC, VAN-1","RMA 26544, ribotype 078",2 µg/mL
same,"MIC, VAN-2","RMA 26544, ribotype 078",2 µg/mL
same,"MIC, VAN-3","RMA 26544, ribotype 078",2 µg/mL
same,"MIC, AV (average)","RMA 26563, ribotype 018",1 µg/mL
same,"MIC, VAN-1","RMA 26563, ribotype 018",1 µg/mL
same,"MIC, VAN-2","RMA 26563, ribotype 018",1 µg/mL
same,"MIC, VAN-3","RMA 26563, ribotype 018",1 µg/mL
same,"MIC, AV (average)","RMA 26572, ribotype 017",1.7 µg/mL
same,"MIC, VAN-1","RMA 26572, ribotype 017",2 µg/mL
same,"MIC, VAN-2","RMA 26572, ribotype 017",2 µg/mL
same,"MIC, VAN-3","RMA 26572, ribotype 017",1 µg/mL
